Like-named read-outs stand apart in the source and are kept apart here. Values belong to the molecule of their own block, whether it stands above or below them.
Columns and labels:
[1] = molecular target: T1, GST-cGB-PDE5 fusion protein (cGMP binding sites of human PDE5A) (Homo sapiens, UniProt O76074); experiment: cGMP binding assay with GST-cGB-PDE5 fusion protein; settings: for competition with cGMP binding to GST-cGB-PDE5 at high concentration: compound 100 μM, cGMP 2 μM
T1 construct: made in house; host or cells: E. coli BL21 (DE3)
Method: 5′-3′, Inc. kits for total RNA followed by oligo (dT) column purification of mRNA are used with HT-29 cells. […] It is then cloned into pGEX-5X-3 glutathione-S-transferase (GST) fusion vector (Pharmacia Biotech )with tac promoter, and EcoRI and XhoI cut sites. The fusion vector is then transfected into E. Coli BL21 (DE3) bacteria (Invitrogen). The transfected BL21 bacteria is grown to log phase, and then IPTG is added as an inducer. The induction is carried at 20° C. for 24 hrs. The bacteria are harvested and lysed. The soluble cell lysate is incubated with GSH conjugated Sepharose 4B (GSH-Sepharose 4B). The GST-cGB-PDE5 fusion protein can bind to the GSH-Sepharose beads, and the other proteins are washed off from beads with excessive cold PBS.
Then, the mixture is transferred to Brandel MB-24 cell harvester with GF/B as the filter membrane followed by 2 washes with 10 mL of cold 5 mM potassium buffer(pH 6.8). The membranes are then cut out and transferred to scintillation vials followed by the addition of 1 mL of H2O and 6 mL of Ready Safe™ liquid scintillation cocktail to each vial. The vials are counted on a Beckman LS 6500 scintillation counter.
The quenching by filter membrane or other debris are also calibrated.

PDE5 = molecular target: T2, PDE5 (Homo sapiens, UniProt O76074); experiment: cGMP PDE inhibition, PDE5; assay type: biochemical
T2 construct: partially purified cGMP-specific PDE isolated from HT-29 cells; endogenous in cells; host or cells: HT-29

[2] = acute toxicity study in rats; assay type: in vivo
[3] = acute and seven-dose toxicity in dogs (capsules); assay type: in vivo
Method: Therefore, these dogs were subsequently administered seven consecutive doses of 1000 mg/kg/day.

[4] = seven-day dose-range finding study in rats; assay type: in vivo; settings: seven days, 2000 mg/kg/day
28-day study in rats = assay type: in vivo; settings: 28 days
Method: A 28-day study in rats was also carried out at 0, 50, 500 and 2000 mg/kg/day.

[5] = long-term safety assessment study in rats, 91 days; assay type: in vivo; settings: males and females at 200 and 500 mg/kg/day
[6] = 91-day oral study in dogs; assay type: in vivo; settings: 91 days, 150 and 300 mg/kg/day
[7] = single, escalating dose human clinical safety study; assay type: in vivo; settings: oral, 50 mg BID, 100 mg BID, 200 mg BID and 400 mg BED
U937 cells = experiment: apoptosis induction of U937 cells (active caspase 3 indirect immunofluorescence); assay type: cell-based; settings: 1 μM
Method: U937 cells (from ATCC Rockville, Md.) were grown in RPMI media supplemented with 5% FCS, glutamine, antibiotic/antimycotic and sodium pyruvate. Total RNA was isolated from two U937 cultures, one treated with 5 nM TPA for 48 hours and one grown in normal media as listed above, using the Rouche High Pure RNA Isolation Kit (cat#1 828 665) as per manufacturers protocol. cDNA was then synthesized from the total RNA using GibcoBRL SuperscriptII (Cat #18064-022) reverse transcriptase as per manufacturers protocol. The resulting cDNA was used as a template for RT-PCR reactions using primer sets specific for PDE2 (forward: […], reverse: […]) or PDE5 (forward: […], reverse: […]). mRNA for PDE2 and 5 were both present in the untreated U937 cells. Upon treatment with TPA, the relative amounts of PDE2 mRNA increased 5 fold. Therefore, U937 cells treated with TPA and driven to differentiate into an activated macrophage like state have elevated levels of PDE2 mRNA (see FIG. 1).
The presence of PDE2 and PDE5 protein within U937 cells was confirmed by indirect immunofluorescence (IIF). U937 cells were cultured as above. Two U937 cultures, one grown in the presence of 5 nM TPA for 48 hours and one grown in normal media were processed. […]
The level of apoptosis in U937 cells was quantified by scoring 500 consecutive cells for the presence of active caspase 3. […]

[8] = test system: TNF-α secreted by TPA-induced U937 cells; experiment: TNF-α immunoassay on U937 cell culture media; assay type: cell-based; settings: cell culture media (FIG. 12)
Method: One function of macrophages is to modulate the activity of other inflammatory cells through various cytokine molecules.
TNF-α levels in the cell culture media were determined by using the TNF-α Immunoassay from R&D Systems (Cat. # DTA50) according to the manufacturer's protocol.

SMILES: CC1=C(CC(=O)O)c2cc(F)ccc2/C1=C\c1ccc(S(C)(=O)=O)cc1 [exisulind]
competition with cGMP in binding to cGMP binding sites of GST-cGB-PDE5 ([1]; 3H-cGMP 2 μM): None of the PDE5 inhibitors showed any competition

competition with cGMP binding to GST-cGB-PDE5 at high concentration [1]: can partially compete
SMILES: O=c1[nH]cnc2c1ncn2[C@@H]1O[C@@H]2COP(=O)(O)O[C@H]2[C@H]1O [Cyclic IMP]

SMILES: Nc1ncnc2c1ncn2[C@@H]1O[C@@H]2COP(=O)(O)O[C@H]2[C@H]1O [Cyclic AMP]
competition with cGMP in binding to cGMP binding sites of GST-cGB-PDE5 [1]: did not compete

SMILES: CCCOc1ccccc1-c1nc2nn[nH]c2c(=O)[nH]1 [zaprinast]
competition with cGMP in binding to cGMP binding sites of GST-cGB-PDE5 ([1]; 3H-cGMP 2 μM): None of the PDE5 inhibitors showed any competition

competition with cGMP in binding to cGMP binding sites of GST-cGB-PDE5 ([1]; 3H-cGMP 2 μM): did not compete
SMILES: O=c1ccn([C@@H]2O[C@@H]3COP(=O)(O)O[C@H]3[C@H]2O)c(=O)[nH]1 [cUMP, cyclic UMP]

competition with cGMP binding to GST-cGB-PDE5 at high concentration [1]: can partially compete
SMILES: Nc1nc2c(nc(Br)n2[C@@H]2O[C@@H]3COP(=O)(O)O[C@H]3[C@H]2O)c(=O)[nH]1 [Example 8-bromo-cGMP, 8-bromo-cGMP]

SMILES: O=C([O-])C1CCN(c2nc(NCc3ccc4c(c3)OCO4)c3cc(Cl)ccc3n2)CC1.[Na+] [Example E4021]
competition with cGMP in binding to cGMP binding sites of GST-cGB-PDE5 ([1]; 3H-cGMP 2 μM): None of the PDE5 inhibitors showed any competition

SMILES: CSc1ccc(/C=C2/C(C)=C(CC(=O)O)c3cc(F)ccc32)cc1 [Sulindac sulfide, sulindac sulfide]
competition with cGMP in binding to cGMP binding sites of GST-cGB-PDE5 ([1]; 3H-cGMP 2 μM): None of the PDE5 inhibitors showed any competition

SMILES: CC1=C(CC(=O)NCc2ccccc2)c2cc(F)ccc2/C1=C\c1ccncc1.Cl [Compound 38, (Z)-5-Fluoro-2-Methyl-(4-Pyridylidene)-3-(N-Benzyl)Indenylacetamide Hydrochloride]
competition with cGMP in binding to cGMP binding sites of GST-cGB-PDE5 ([1]; 3H-cGMP 2 μM): does not bind to the cGMP-binding site | IC50 (PDE5): 4 µM | intraperitoneal LD50 ([2]; intraperitoneal): greater than 1000 mg/kg | oral LD50 ([2]; oral): > 2000 mg/kg | necropsy finding ([2]; single dose 1000 mg/kg intraperitoneally): mesenteric adhesions seen in some animals | oral LD50 [3]: greater than 1000 mg/kg | effects [4]: labored breathing and/or abnormal respiratory sounds, decreased weights gains and food consumption in male rats, and increased liver weights in female rats | body weight changes, ophthalmoscopic examinations, hematological and blood chemistry values and urinalysis (28-day study in rats): unremarkable | liver and thyroid increases at the lower doses (28-day study in rats; lower doses): not statistically significant | liver and thyroid/parathyroid weights [5]: dose-related trend to increased liver and thyroid/parathyroid weights | feces [6]: Orange discoloration of the feces | side effects [7]: no significant side effects at any dose | apoptosis as reflected by the presence of active caspase 3 (FIG. 8) (U937 cells): undergoing apoptosis | level of TNF-α secreted [8]: significantly reduced

competition with cGMP in binding to cGMP binding sites of GST-cGB-PDE5 ([1]; 3H-cGMP 2 μM): did not compete
SMILES: CCCCOC1C2OP(=O)(O)OCC2OC1n1cnc2c(N)ncnc21 (stereo not shown) [2′-O-butyl-cAMP]

competition with cGMP in binding to cGMP binding sites of GST-cGB-PDE5 ([1]; 3H-cGMP 2 μM): did not compete
SMILES: CCCCOC1C2OP(=O)(O)OCC2OC1n1cnc2c(=O)[nH]c(N)nc21 (stereo not shown) [2′-O-butyl-cGMP]

competition with cGMP in binding to cGMP binding sites of GST-cGB-PDE5 ([1]; 3H-cGMP 2 μM): did not compete
SMILES: Nc1ccn([C@@H]2O[C@@H]3COP(=O)(O)O[C@H]3[C@H]2O)c(=O)n1 [cCMP, cyclic CMP]

Source: patent publication US20060252762A1, “Methods for treatment of multiple sclerosis” (priority 2001, published 2006)
